Assay results reported in patent US5643908A, “Collagenase inhibitor” (Sankyo Company, Limited, priority 1991, dated 1997).
Residues, ends and D or L forms follow the SMILES beside them. *: point of attachment. Cbz = O=C(OCc1ccccc1)*; NHOH = ON*

Tests used:
collagenase = conditions: cited from earlier work
bacteria = conditions: cited from earlier work
type IV collagenases [1] = target: T1, type IV collagenases (Homo sapiens, UniProt P08253); assay: Inhibitory activity on type IV collagenases: cleavage of radio-labelled type IV collagen; type: biochemical; conditions: type IV collagenases from serum-free culture medium of human melanoma cells; radio-labelled type IV collagen from mouse EHS tumor as substrate
T1 construct: type IV collagenases prepared from a serum-free culture medium of human melanoma cells; endogenous in cells
T1 sequence (P08253 110-660): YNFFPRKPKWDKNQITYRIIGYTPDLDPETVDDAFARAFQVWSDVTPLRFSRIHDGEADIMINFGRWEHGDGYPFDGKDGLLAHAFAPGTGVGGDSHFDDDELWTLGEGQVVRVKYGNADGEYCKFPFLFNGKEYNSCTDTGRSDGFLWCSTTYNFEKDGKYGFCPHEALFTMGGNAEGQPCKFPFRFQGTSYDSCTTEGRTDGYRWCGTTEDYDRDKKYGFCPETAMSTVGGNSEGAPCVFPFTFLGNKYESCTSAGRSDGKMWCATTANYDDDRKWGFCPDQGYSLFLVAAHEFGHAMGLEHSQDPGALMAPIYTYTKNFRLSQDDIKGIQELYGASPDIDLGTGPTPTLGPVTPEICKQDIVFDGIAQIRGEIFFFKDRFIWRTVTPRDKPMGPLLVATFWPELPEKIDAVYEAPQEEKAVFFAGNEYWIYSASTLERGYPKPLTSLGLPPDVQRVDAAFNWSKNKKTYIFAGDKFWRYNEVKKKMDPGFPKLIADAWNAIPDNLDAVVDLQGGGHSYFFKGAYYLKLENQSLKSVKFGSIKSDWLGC
Method: The activity of type IV collagenase was assayed according to the method of Salo et al. [J. Biol. Chem., Vol. 258, 3058-3063 (1983)].
In detail, the activity was assayed by measuring the cleavage of collagen by using type IV collagenases prepared from a serum-free culture medium of human melanoma cells, and type IV collagen prepared from mouse EHS tumor radio-labelled as a substrate.
The inhibitory activity on type IV collagenases was measured by calculating the inhibition percent of the enzyme reaction, in which the test samples were added to the reaction mixture.
The results (expressed as I50) is shown below.

cancer metastasis = conditions: animal experiment; cited from earlier work
type IV collagenases [2] = conditions: cited from earlier work
aminopeptidase M = conditions: low concentrations; cited from earlier work

| Structure (SMILES) | IC50 (type IV collagenases [1]) [nM] | further results |
| --- | --- | --- |
| CCCCCC(CC(=O)NO)C(=O)N1NCCCC1C(=O)NC(CC(C)C)C(C)=O (stereo not drawn) |  | collagenase inhibiting activity (collagenase): collagenase inhibiting activities; antibacterial activity (bacteria): antibacterial |
| CCCCCC(CC(=O)NO)C(=O)N1NCCCC1C(=O)NC(C(=O)CC)C(C)CC (stereo not drawn) |  | antibacterial activity (bacteria): antibacterial activity |
| CCCCC[C@H](CC(=O)NO)C(=O)N1NCCC[C@H]1C(=O)N[C@H](C(=O)N(C)OC)C(C)C [Example 3, 2-(S)-[N^2-[2-(R)-(Hydroxyaminocarbonyl)methyl-1-oxoheptyl]-(S)-piperazyl]aminoisovaleric acid N-methyl-N-methoxyamide] | 330 |  |
| CCCCC[C@H](CC(=O)NO)C(=O)N1NCCC[C@H]1C(=O)N[C@H](C(=O)OC)C(C)C [Example 4, Methyl 2-(S)-[N^2-[2-(R)-(Hydroxyaminocarbonyl)methyl-1-oxoheptyl]-(S)-piperazyl]aminoisovalerate] | 350 |  |
| CCCCC[C@H](CC(=O)NO)C(=O)N1NCCC[C@H]1C(=O)N[C@H](C(=O)OC(C)(C)C)C(C)C [Example 5] | 360 |  |
| CCCCCC[C@H](CC(=O)NO)C(=O)N1NCCC[C@H]1C(=O)NC [Example 14, N^2-[2-(R)-(Hydroxyaminocarbonyl)methyl-1-oxooctyl]-(S)-piperazic acid N-methylamide] | 82 |  |
| CCCCCCC[C@H](CC(=O)NO)C(=O)N1NCCC[C@H]1C(=O)NC [Example 16, N^2-[2-(R)-(Hydroxyaminocarbonyl)methyl-1-oxononyl]-(S)-piperazic acid N-methylamide] | 42 |  |
| CCCCCCC[C@H](CC(=O)NO)C(=O)N1NCCC[C@H]1C(=O)N(C)C [Example 17, N^2-[2-(R)-(Hydroxyaminocarbonyl)methyl-1-oxononyl]-(S)-piperazic acid N,N-dimethylamide] | 270 |  |
| CCCCCCCCCC[C@H](CC(=O)NO)C(=O)N1NCCC[C@H]1C(=O)NC [Example 18, N^2-[2-(R)-(Hydroxyaminocarbonyl)methyl-1-oxododecyl]-(S)-piperazic acid N-methylamide] | 27 |  |
| CCCCCCCCCC[C@H](CC(=O)NO)C(=O)N1NCCC[C@H]1C(=O)N(C)C [Example 19, N^2-[2-(R)-(Hydroxyaminocarbonyl)methyl-1-oxododecyl]-(S)-piperazic acid N,N-dimethylamide] | 80 |  |
| CNC(=O)[C@@H]1CCCNN1C(=O)[C@H](CCc1ccccc1)CC(=O)NO [Example 20, N^2-[2-(R)-(Hydroxyaminocarbonyl)methyl-1-oxo-4-phenylbutyl]-(S)-piperazic acid N-methylamide] | 73 |  |
| CN(C)C(=O)[C@@H]1CCCNN1C(=O)[C@H](CCc1ccccc1)CC(=O)NO [Example 21, N^2-[2-(R)-(Hydroxyaminocarbonyl)methyl-1-oxo-4-phenylbutyl]-(S)-piperazic acid N,N-dimethylamide] | 280 |  |
| CCCCC[C@H](CC(=O)NO)C(=O)N1NCCC[C@H]1C(=O)NCC [Example 27, N^2-[2-(R)-(Hydroxyaminocarbonyl)methyl-1-oxoheptyl]-(S)-piperazic acid N-ethylamide] | 160 |  |
| CCCCC[C@H](CC(=O)NO)C(=O)N1NCCC[C@H]1C(N)=O [Example 29, N^2-[2-(R)-(Hydroxyaminocarbonyl)methyl-1-oxoheptyl]-(S)-piperazylamide] | 250 |  |
| CCCCC[C@H](CC(=O)NO)C(=O)N1NCCC[C@H]1C(=O)NCC(C)C [Example 30, N^2-[2-(R)-(Hydroxyaminocarbonyl)methyl-1-oxoheptyl]-(S)-piperazic acid N-isobutylamide] | 240 |  |
| CC(C)C[C@H](CC(=O)NO)C(=O)N1NCCC[C@H]1C(=O)N(C)C [Example 32, N^2-[2-(R)-(Hydroxyaminocarbonyl)methyl-1-oxo-4-methyl-pentyl]-(S)-piperazic acid N,N-dimethylamide] | 750 |  |
| CCCCCCCC[C@H](CC(=O)NO)C(=O)N1NCCC[C@H]1C(=O)N(C)C [Example 33, N^2-[2-(R)-(Hydroxyaminocarbonyl)methyl-1-oxodecyl]-(S)-piperazic acid N,N-dimethylamide] | 64 |  |
| CCCCCCCC[C@H](CC(=O)NO)C(=O)N1NCCC[C@H]1C(=O)NCC [Example 34, N^2-[2-(R)-(Hydroxyaminocarbonyl)methyl-1-oxodecyl]-(S)-piperazic acid N-ethylamide] | 37 |  |
| CCCCCCCC[C@H](CC(=O)NO)C(=O)N1NCCC[C@H]1C(=O)N(CC)CC [Example 35, N^2-[2-(R)-(Hydroxyaminocarbonyl)methyl-1-oxodecyl]-(S)-piperazic acid N,N-diethylamide] | 200 |  |
| CCCCC[C@H](CC(=O)NO)C(=O)N1NCCC[C@H]1C(=O)N[C@H](C(=O)CC)[C@@H](C)CC [Example 108, reference compound] | 1400 |  |
| CCCCC[C@H](CC(=O)NO)C(=O)N1NCCC[C@H]1C(=O)N[C@@H](C(=O)CC)[C@H](C)CC [Example 109, N^2-[2-(R)-(Hydroxyaminocarbonyl)methyl-1-oxoheptyl]-(S)-piperazic acid (4R,5R)-5-methyl-3-oxoheptan-4-ylamide, reference compound] | 4300 |  |
| CCCCC[C@H](CC(=O)NO)C(=O)N1NCCC[C@@H]1C(=O)N[C@H](C(=O)CC)[C@@H](C)CC [Example 110, N^2-[2-(R)-(Hydroxyaminocarbonyl)methyl-1-oxoheptyl]-(R)-piperazic acid (4S,5S)-methyl-3-oxoheptan-4-ylamide, reference compound] | 18500 |  |
| CNC(=O)[C@H](Cc1ccc(OC)cc1)NC(=O)[C@@H](CC(=O)NO)CC(C)C [SC 44463] |  | inhibitory activity on cancer metastasis (cancer metastasis): confirmed to exhibit an inhibitory activity on cancer metastasis; inhibitor relatively specific to type IV collagenases (type IV collagenases [2]): inhibitor relatively specific to type IV collagenases |
| CCCCC[C@H](CC(=O)NO)C(=O)N[C@H](C(=O)N1CCC[C@H]1CO)C(C)C [actinonin] |  | inhibition of aminopeptidase M (aminopeptidase M): inhibit aminopeptidase M at low concentrations |
| CC(C)C[C@H](NC(=O)[C@@H]1CCCN1C(=O)OCc1ccccc1)C(=O)NCC(=O)NO [benzyloxycarbonyl propyl-leucyl-glycylhydroxamic acid] (Cbz-Pro-Leu-Gly-{NHOH}) |  | collagenase inhibiting activity (collagenase): showing collagenase inhibiting effects |
